Among the data in PubChem BioAssay AID330 (DTP/NCI, 2004) are T/C values, retold here.

Where “and” joins values, the source holds several entries; their conditions need not be identical. Identical values can stand only once. Toxic doses and inconclusive results are not listed.

For the experiment, the system named is P388 leukemia ip, CD2F1 mice, survival T/C. Nature of the experiment: NCI In Vivo Anticancer Drug Screen. Data for tumor model P388 Leukemia (intraperitoneal) in CD2F1 (CDF1) mice. The conditions noted are these: endpoint: median survival time, higher = longer survival. The essentials: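 Mice carrying the transplanted tumor received test compound or vehicle. Survival was recorded in each group, and the value is the treated-group measurement divided by that of the vehicle-treated control group.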

The mark [1] stands for this setting: dose: 50.0 mg/kg/injection, schedule: Q01DX009 (ip), vehicle: saline with Tween-80.
Where [2] appears, read: dose: 100.0 mg/kg/injection, schedule: Q01DX009 (ip), vehicle: saline with Tween-80.
Setting [3] is: dose: 200.0 mg/kg/injection, schedule: Q01DX009 (ip), vehicle: saline with Tween-80.
[4] abbreviates: dose: 100.0 mg/kg/injection, schedule: Q01DX001 (ip), vehicle: saline with Tween-80.
[5] abbreviates: dose: 200.0 mg/kg/injection, schedule: Q01DX001 (ip), vehicle: saline with Tween-80.
Where [6] appears, read: dose: 60.0 mg/kg/injection, schedule: Q01DX005 (ip), vehicle: saline with Tween-80.
[7] abbreviates: dose: 120.0 mg/kg/injection, schedule: Q01DX005 (ip), vehicle: saline with Tween-80.
[8] abbreviates: dose: 240.0 mg/kg/injection, schedule: Q01DX005 (ip), vehicle: saline with Tween-80.

Turning to `CC1Cn2c(c(-c3ccccc3)c(=O)[nH]c2=S)O1` (stereo not drawn), the T/C by setting is: under setting [1], 100 % of control; under setting [2], 98 % of control; under setting [3], 91 % of control.

With `BrC1=CC(Br)=C2N=C(N3CCCC3)N=C3N=C(C(Br)(Br)Br)N=C1N32`, the T/C is, setting by setting: (dose: 7.5 mg/kg/injection, schedule: Q01DX005 (ip), vehicle: Klucel (hydroxypropylcellulose) (HPC)) 94 % of control; (dose: 15.0 mg/kg/injection, schedule: Q01DX005 (ip), vehicle: Klucel (hydroxypropylcellulose) (HPC)) 92 % of control; (dose: 30.0 mg/kg/injection, schedule: Q01DX005 (ip), vehicle: Klucel (hydroxypropylcellulose) (HPC)) 86 % of control and 90 % of control; (dose: 60.0 mg/kg/injection, schedule: Q01DX005 (ip), vehicle: Klucel (hydroxypropylcellulose) (HPC)) 86 % of control; (dose: 120.0 mg/kg/injection, schedule: Q01DX005 (ip), vehicle: Klucel (hydroxypropylcellulose) (HPC)) 88 % of control; (dose: 240.0 mg/kg/injection, schedule: Q01DX005 (ip), vehicle: Klucel (hydroxypropylcellulose) (HPC)) 94 % of control.

Regarding `CC(=O)Nc1cc2cc(NC=C(C#N)C#N)ccc2oc1=O`, the T/C reads like this: (dose: 60.0 mg/kg/injection, schedule: Q01DX005 (ip), vehicle: Klucel + Tween-80) 96 % of control; (dose: 120.0 mg/kg/injection, schedule: Q01DX005 (ip), vehicle: Klucel + Tween-80) 92 % of control.

On to `CCCCCCN(CCCCCC)c1nc(Cl)nc(NCC)n1`, for which the T/C was 111 % of control (dose: 50.0 mg/kg/injection, schedule: Q01DX005 (ip), vehicle: saline with Tween-80); 103 % of control (dose: 100.0 mg/kg/injection, schedule: Q01DX005 (ip), vehicle: saline with Tween-80); 103 % of control (dose: 200.0 mg/kg/injection, schedule: Q01DX005 (ip), vehicle: saline with Tween-80).

Consider `O=C(ON1C(=O)CCC1=O)C1CCC(CN2C(=O)C=CC2=O)CC1` (stereo not drawn), for which the T/C (dose: 100.0 mg/kg/injection, schedule: Q04DX002 (ip), vehicle: saline with Tween-80) was 120 % of control.

Regarding `CCC1C(=O)OCc2c1cc1n(c2=O)Cc2ccccc2-1` (stereo not drawn), the T/C under setting [4] is 97 % of control; the T/C under setting [5] was 92 % of control; the T/C (dose: 400.0 mg/kg/injection, schedule: Q01DX001 (ip), vehicle: saline with Tween-80) is 90 % of control.

As to `CC(C)n1c(Cl)c(C=O)c2ccccc21`, the T/C (dose: 100.0 mg/kg/injection, schedule: Q01DX001 (ip), vehicle: Klucel (hydroxypropylcellulose) (HPC)) was 94 % of control; the T/C (dose: 200.0 mg/kg/injection, schedule: Q01DX001 (ip), vehicle: Klucel (hydroxypropylcellulose) (HPC)) is 87 % of control; the T/C (dose: 400.0 mg/kg/injection, schedule: Q01DX001 (ip), vehicle: Klucel (hydroxypropylcellulose) (HPC)) is 98 % of control.

Take `COc1cc2c(c(NC(C)CCCN=C(N)NC(N)=NC(C)C)c1)NCCC2` (stereo not drawn): the T/C (dose: 3.12 mg/kg/injection, schedule: Q01DX005 (ip), vehicle: saline with Tween-80) is 103 % of control; the T/C (dose: 6.25 mg/kg/injection, schedule: Q01DX005 (ip), vehicle: saline with Tween-80) was 106 % of control; the T/C (dose: 12.5 mg/kg/injection, schedule: Q01DX005 (ip), vehicle: saline with Tween-80) was 106 % of control.

For the molecule `COc1cccc(C(Nc2nncs2)Nc2nncs2)c1[N+](=O)[O-]`, the T/C by setting is: under setting [6], 98 % of control; under setting [7], 98 % of control; under setting [8], 101 % of control.

For `CCn1c(Cl)c(/C=N\Nc2ccc([N+](=O)[O-])cc2)c2ccccc21`, the T/C (dose: 100.0 mg/kg/injection, schedule: Q01DX001 (ip), vehicle: saline) is 94 % of control; the T/C (dose: 200.0 mg/kg/injection, schedule: Q01DX001 (ip), vehicle: saline) is 95 % of control; the T/C (dose: 400.0 mg/kg/injection, schedule: Q01DX001 (ip), vehicle: saline) is 95 % of control.

Take `CC(C)CS(=O)(=O)c1ncnc2nc[nH]c12`: the T/C (dose: 50.0 mg/kg/injection, schedule: Q01DX005 (ip), vehicle: Klucel (hydroxypropylcellulose) (HPC)) is 102 % of control; the T/C (dose: 100.0 mg/kg/injection, schedule: Q01DX005 (ip), vehicle: Klucel (hydroxypropylcellulose) (HPC)) is 97 % of control; the T/C (dose: 200.0 mg/kg/injection, schedule: Q01DX005 (ip), vehicle: Klucel (hydroxypropylcellulose) (HPC)) is 91 % of control.

As for `O=C(CO)CC(=O)CCC(=O)Nc1cccc([N+](=O)[O-])c1`, the T/C was 105 % of control under setting [6], 111 % of control under setting [7] and 105 % of control under setting [8].

Regarding `O=C1C=C/C(=C\c2ccc(Cl)cc2)O1`, the T/C is, setting by setting: (dose: 100.0 mg/kg/injection, schedule: Q04DX002 (ip), vehicle: Klucel (hydroxypropylcellulose) (HPC)) 99 % of control; (dose: 200.0 mg/kg/injection, schedule: Q04DX002 (ip), vehicle: Klucel (hydroxypropylcellulose) (HPC)) 107 % of control; (dose: 400.0 mg/kg/injection, schedule: Q04DX002 (ip), vehicle: Klucel (hydroxypropylcellulose) (HPC)) 96 % of control.

In the case of `S=c1nc[nH]c2c1ncn2CN1CCCCC1`, the T/C reads like this: under setting [1], 118 % of control; (dose: 66.0 mg/kg/injection, schedule: Q01DX009 (ip), vehicle: saline sonified) 122 % of control; (dose: 150.0 mg/kg/injection, schedule: Q01DX009 (ip), vehicle: saline sonified) 90 % of control.

As for `Cc1ccc(N=C=C(c2ccccc2)c2ccccc2)cc1`, the T/C reads like this: (dose: 50.0 mg/kg/injection, schedule: Q01DX009 (ip), vehicle: Klucel (hydroxypropylcellulose) (HPC)) 123 % of control; (dose: 100.0 mg/kg/injection, schedule: Q01DX009 (ip), vehicle: Klucel (hydroxypropylcellulose) (HPC)) 119 % of control.

As for `CC(/C=C/c1ccccc1)=Nc1ccccc1`, the T/C is, setting by setting: under setting [1], 109 % of control and 112 % of control; under setting [2], 114 % of control and 123 % of control; under setting [3], 123 % of control.

Regarding `C#CCOc1ccc(Cl)cc1C(=O)O`, the T/C is 105 % of control under setting [1], 102 % of control under setting [2] and 97 % of control under setting [3].

As for `CNC(=O)CCl`, the T/C (dose: 100.0 mg/kg/injection, schedule: Q04DX003 (ip), vehicle: saline) is 99 % of control and the T/C (dose: 200.0 mg/kg/injection, schedule: Q04DX003 (ip), vehicle: saline) was 99 % of control.

Take `CCC(=O)OC(C)COc1ccc(C(C)(C)C)cc1` (stereo not drawn): the T/C runs as follows: under setting [2], 107 % of control; under setting [3], 114 % of control; (dose: 400.0 mg/kg/injection, schedule: Q01DX009 (ip), vehicle: saline with Tween-80) 117 % of control.

Take `CC(C)C1SCCS1`: the T/C reads like this: (dose: 50.0 mg/kg/injection, schedule: Q01DX001 (ip), vehicle: saline with Tween-80) 102 % of control; under setting [4], 106 % of control; under setting [5], 99 % of control.
